How the values were obtained:
Conditions in all cases: 72 h
[1] = tested on: Caco-2; test: cell viability relative to DMSO; higher = less toxic
[2] = tested on: Calu-3; test: as above
[3] = tested on: HepG2; test: as above
[4] = tested on: U2OS; test: as above
[5] = tested on: Vero E6; test: as above
[6] = tested on: Caco-2; test: relative viability EC50 (midpoint between 100% and the lowest measured viability); higher = less toxic
[7] = tested on: Calu-3; test: as above
[8] = tested on: HepG2; test: as above
[9] = tested on: U2OS; test: as above
[10] = tested on: Vero E6; test: as above
[11] = tested on: Caco-2; test: drug sensitivity score (DSS) for viability; higher = more toxic; extreme values may be limits of the assay
[12] = tested on: Calu-3; test: as above
[13] = tested on: HepG2; test: as above
[14] = tested on: U2OS; test: as above
[15] = tested on: Vero E6; test: as above

| SMILES | cell viability ([1]; 1 nM) [%] | cell viability ([1]; 10 nM) [%] | cell viability ([1]; 100 nM) [%] | cell viability ([1]; 1000 nM) [%] | cell viability ([1]; 10000 nM) [%] | cell viability ([2]; 1 nM) [%] | cell viability ([2]; 10 nM) [%] | cell viability ([2]; 100 nM) [%] | cell viability ([2]; 1000 nM) [%] | cell viability ([2]; 10000 nM) [%] | cell viability ([3]; 1 nM) [%] | cell viability ([3]; 10 nM) [%] | cell viability ([3]; 100 nM) [%] | cell viability ([3]; 1000 nM) [%] | cell viability ([3]; 10000 nM) [%] | cell viability ([4]; 1 nM) [%] | cell viability ([4]; 10 nM) [%] | cell viability ([4]; 100 nM) [%] | cell viability ([4]; 1000 nM) [%] | cell viability ([4]; 10000 nM) [%] | cell viability ([5]; 1 nM) [%] | cell viability ([5]; 10 nM) [%] | cell viability ([5]; 100 nM) [%] | cell viability ([5]; 1000 nM) [%] | cell viability ([5]; 10000 nM) [%] | relative viability EC50 [6] [µM] | relative viability EC50 [7] [µM] | relative viability EC50 [8] [µM] | relative viability EC50 [9] [µM] | relative viability EC50 [10] [µM] | drug sensitivity score [11] | drug sensitivity score [12] | drug sensitivity score [13] | drug sensitivity score [14] | drug sensitivity score [15] |
| --- | --- | --- | --- | --- | --- | --- | --- | --- | --- | --- | --- | --- | --- | --- | --- | --- | --- | --- | --- | --- | --- | --- | --- | --- | --- | --- | --- | --- | --- | --- | --- | --- | --- | --- | --- |
| Nc1nccs1 [aminothiazole] | 102 | 94.8 | 97.8 | 98.9 | 100 | 102 | 105 | 100 | 109 | 91.3 | 104 | 100 | 94.7 | 97.2 | 97.4 | 102 | 98.6 | 94.2 | 99.8 | 97.1 | 105 | 106 | 98.2 | 93.4 | 95.4 | > 10 | > 10 | > 10 | > 10 | > 10 | 0 | 0 | 0 | 0 | 0 |
| O=c1cccc2n1C[C@@H]1CNC[C@H]2C1 [cytisine] | 93.3 | 92.2 | 92.4 | 91.3 | 96.5 | 101 | 95.6 | 99 | 95.4 | 104 | 102 | 101 | 96.4 | 97 | 114 | 102 | 96.2 | 101 | 100 | 102 | 88.2 | 98.6 | 92.5 | 97.3 | 108 | > 10 | > 10 | > 10 | > 10 | > 10 | 0 | 0 | 0 | 0 | 0 |
| OC[C@H]1O[C@@H](n2cnc3c(NC4CCCC4)ncnc32)[C@H](O)[C@@H]1O [N6-cyclopentyladenosine] | 92.8 | 99.7 | 109 | 104 | 116 | 108 | 96.6 | 94 | 102 | 100 | 112 | 95.6 | 99.1 | 92.7 | 100 | 97.7 | 98.8 | 98.2 | 102 | 112 | 92.4 | 91.4 | 92.2 | 93.9 | 102 | > 10 | > 10 | > 10 | > 10 | > 10 | 0 | 0 | 0 | 0 | 0 |
| CCc1cc2c(cc1CC)CC(NC[C@H](O)c1ccc(O)c3[nH]c(=O)ccc13)C2 [indacaterol] | 89.7 | 97 | 101 | 94.8 | 96.4 | 112 | 94.2 | 112 | 101 | 91.5 | 121 | 115 | 98.4 | 115 | 81 | 106 | 100 | 104 | 95.6 | 95.4 | 96.8 | 94.3 | 96.8 | 96.3 | 94.2 | > 10 | > 10 | > 10 | > 10 | > 10 | 0 | 0 | 0.2 | 0 | 0 |
| O=C(O)c1cccc(-c2noc(-c3ccccc3F)n2)c1 [ataluren] | 97 | 101 | 98.6 | 111 | 94.3 | 98.5 | 89.7 | 104 | 94.2 | 99.6 | 101 | 107 | 105 | 97.2 | 90.9 | 96.6 | 99.4 | 95.7 | 101 | 93.5 | 103 | 102 | 106 | 106 | 95.7 | > 10 | > 10 | > 10 | > 10 | > 10 | 0 | 0 | 0 | 0 | 0 |
| C[C@@H]1Cc2c([nH]c3ccccc23)[C@@H](c2c(F)cc(/C=C/C(=O)O)cc2F)N1CC(C)(C)F [AZD9496] | 94.2 | 104 | 99.6 | 94.7 | 93.5 | 97.1 | 91.7 | 90.8 | 93.6 | 105 | 103 | 90 | 104 | 98.8 | 97.5 | 98.8 | 100 | 99 | 102 | 98.9 | 102 | 100 | 104 | 101 | 91.7 | > 10 | > 10 | > 10 | > 10 | > 10 | 0 | 0 | 0 | 0 | 0 |
| CCCCCC(O)CCCC(=O)O (stereo not given) | 95.3 | 79 | 82.1 | 93.7 | 101 | 98.6 | 103 | 101 | 95.9 | 99.4 | 90.7 | 95.5 | 85.8 | 98.5 | 92.5 | 98.1 | 97.8 | 100 | 95.8 | 102 | 86.1 | 102 | 95.1 | 95.3 | 90.2 | > 10 | > 10 | > 10 | > 10 | > 10 | 0.5 | 0 | 0 | 0 | 0 |
| CC(/C=C/C(=O)NO)=C\[C@@H](C)C(=O)c1ccc(N(C)C)cc1 [trichostatin-a] | 97.3 | 101 | 37.1 | 2.4 | 3 | 107 | 103 | 89 | 20.4 | 7.5 | 101 | 93.1 | 84.2 | 0.4 | 0 | 99.7 | 95.4 | 77.3 | 1 | 0.7 | 98.7 | 94.4 | 44 | -0.2 | -0.1 | 0.0788 | 0.336 | 0.194 | 0.162 | 0.0838 | 24.9 | 16 | 20.6 | 21.4 | 24.6 |
| COc1cc2c(NC3CCN(C)CC3)nc(N3CCCN(C)CC3)nc2cc1OCCCN(C)C [UNC0224] | 99.3 | 101 | 89.9 | 95.8 | 103 | 143 | 103 | 94.2 | 97.9 | 98.9 | 90.3 | 97.4 | 98.8 | 101 | 95.9 | 103 | 96 | 104 | 101 | 101 | 96.7 | 102 | 101 | 102 | 98.1 | > 10 | > 10 | > 10 | > 10 | > 10 | 0 | 0 | 0 | 0 | 0 |
| O=C(NC1CCNCC1)[C@@H]1CC[C@@H]2CN1C(=O)N2OS(=O)(=O)O [relebactam] | 92.6 | 108 | 89.4 | 94.6 | 90 | 110 | 103 | 99 | 107 | 98.2 | 93.9 | 109 | 94.1 | 108 | 95.3 | 102 | 107 | 103 | 101 | 100 | 99.1 | 97.2 | 97.9 | 102 | 104 | > 10 | > 10 | > 10 | > 10 | > 10 | 0.3 | 0 | 0 | 0 | 0 |
| Oc1ccc(OCc2ccccc2)cc1 [monobenzone] | 99.2 | 92.6 | 103 | 107 | 88.3 | 97.5 | 95.5 | 94.6 | 98.9 | 94.5 | 91.6 | 94.9 | 109 | 103 | 90.2 | 107 | 96.9 | 94.9 | 102 | 110 | 95.8 | 97.4 | 97.3 | 100 | 100 | > 10 | > 10 | > 10 | > 10 | > 10 | 0 | 0 | 0 | 0 | 0 |
| COc1cc(N)c(Cl)cc1C(=O)NC1CCN(Cc2ccccc2)CC1 [clebopride] | 107 | 99.9 | 108 | 102 | 85.6 | 94.3 | 101 | 107 | 96.6 | 94.2 | 97.1 | 97.5 | 95.1 | 104 | 94.7 | 93.7 | 97.2 | 96.8 | 97.3 | 94 | 93.6 | 104 | 102 | 97.6 | 98.1 | > 10 | > 10 | > 10 | > 10 | > 10 | 0.1 | 0 | 0 | 0 | 0 |
| CC(C)NNC(=O)c1ccncc1 [iproniazid] | 93.6 | 95.9 | 98.9 | 90.8 | 103 | 93.2 | 97.9 | 94.6 | 107 | 99.6 | 108 | 96.4 | 108 | 104 | 105 | 96.6 | 98.9 | 97.4 | 103 | 104 | 100 | 95.1 | 101 | 90.8 | 108 | > 10 | > 10 | > 10 | > 10 | > 10 | 0 | 0 | 0 | 0 | 0 |
| Cc1cccn2c(=O)c(/C=C(\C#N)c3nc4ccccc4s3)c(Oc3ccc(F)cc3)nc12 | 105 | 96.3 | 113 | 115 | 119 | 105 | 97.9 | 101 | 104 | 106 | 103 | 99.6 | 100 | 99.3 | 102 | 98.3 | 98.2 | 98.2 | 103 | 99.1 | 103 | 100 | 98.9 | 98.7 | 95.8 | > 10 | > 10 | > 10 | > 10 | > 10 | 0 | 0 | 0 | 0 | 0 |
